# How the values were obtained:
# [1] = target: T1, Sclerostin (Homo sapiens, UniProt Q9BQB4); assay: luciferase Wnt pathway activity assay (inhibition of sclerostin by restoration of Wnt signaling); format: cell-based; settings: for identified as promoting bone growth (Wnt signaling / inhibition of sclerostin): human cells, luciferase Wnt pathway activity; for concentration at which compound inhibits sclerostin and restores normal Wnt activity (RLU): human embryonic cells, luciferase RLU, p<0.05
# T1 construct: host or cells: human cells (reporter cells)
# T1 sequence (Q9BQB4 24-213): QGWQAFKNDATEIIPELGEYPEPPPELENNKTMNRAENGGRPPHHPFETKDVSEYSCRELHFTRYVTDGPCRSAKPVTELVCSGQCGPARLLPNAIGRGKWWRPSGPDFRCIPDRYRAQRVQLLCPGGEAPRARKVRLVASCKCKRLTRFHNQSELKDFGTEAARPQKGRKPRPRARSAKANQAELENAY
# Method: (§1) The Y axis represents Relative Light Units (RLU) which represents Wnt pathway signaling. Addition of Wnt (W) activates the Wnt pathway, while addition of Sclerostin (S) inhibits the Wnt pathway. Addition of Compound 1 inhibits sclerostin and restores normal Wnt activity at 3 μM. Asterisks represent statistically significant p<0.05.
# as §1, with “2” for “1”, “10” for “3”
# Briefly, human cells are treated with a predetermined dose of a candidate compound for a complete dosing schedule. Control vehicle treated cells are treated with a control solution, preferably a non-irritating buffer solution or other carrier. Once the dosing schedule has been completed, both test and control assays are examined for luciferase Wnt pathway activity to determine the quantity of Wnt signaling and thus inhibition of sclerostin.
# Bars marked with a double asterisk indicate a significant difference as compared to S, but not as compared to W. Concentrations are indicated along the X axis in micromolar values.
# Concentrations are indicated along the X axis in micromolar values.
# [2] = test system: osteocalcin (OCN); assay: Bone formation assay: osteocalcin (OCN) ELISA in cells treated with sclerostin and compound; format: cell-based, human
# Text: Bone formation can be assayed in vitro or in vivo using a serum marker for bone formation, osteocalcin (OCN). OCN is commercially available, e.g., from Biomedical Technologies, Inc. (Stoughton, Mass.). In one exemplary assay, using the manufacturer's protocol for the mouse osteocalcin EIA kit (described at http://www.btiinc.com/page/cata2/html#mouse_osteocalcin) bone formation in cells such as MC3T3 osteoblast cells can be assayed by measuring the concentration of OCN. An ELISA assay followed by spectrophotometer optical density (OD) readings to measure the concentration of OCN is used to detect the level of OCN secreted from cells, e.g., cells treated with a vehicle control, a sclerostin control, or with a combination of sclerostin and a compound as described herein. In some embodiments, the cells are treated with increasing doses of the control or compound.
# Compound 2 was added in increasing amounts (0.13 μM-100 μM) with sclerostin at 1/8 volume.
identified as promoting bone growth (Wnt signaling / inhibition of sclerostin) [1],concentration at which compound inhibits sclerostin and restores normal Wnt activity (RLU) [1] [µM],SMILES,effect on OCN induction blocked by sclerostin ([2]; 0.13 μM-100 μM compound with sclerostin at 1/8 volume),stimulation of bone formation marker OCN versus vehicle-treated cells with No Sclerostin (NS) ([2]; 20 μM compound with Sclerostin at 1/8 volume)
identified as promoting bone growth,10,"COc1ccc(-c2nccc3c2[nH]c2ccccc23)cc1 [Compound 2, 1-(4-methoxyphenyl)-9H-pyrido[3,4-b]indole]",restoration of OCN activity that was blocked by sclerostin,stimulation of OCN well over that of the vehicle-treated cells
identified as promoting bone growth,3,"Cc1nc(O)cc2c1[nH]c1ccccc12 [Compound 1, 3-hydroxy-1-methyl-9H-pyrido[3,4-b]indole]",–,–
